For six compounds, mutagenic call results are on record in PubChem BioAssay AID1259407 (Chemical Carcinogenesis Research Information System (CCRIS), 2018).

Active and inactive are the calls of the source. How the calls were made is not given here.

The subject of this series is CCRIS mutagenicity, Ames/micronucleus/aberration tests. The series can be described thus: CCRIS mutagenicity studies.
Where [1] appears, read: Test System: AMES SALMONELLA TYPHIMURIUM, Strain/Indicator: TA98, Metabolic Activation: HAMSTER, LIVER, S-9, AROCLOR 1254, Method: STANDARD PLATE.
Setting [2] is: Test System: AMES SALMONELLA TYPHIMURIUM, Strain/Indicator: TA98, Metabolic Activation: RAT, LIVER, S-9, AROCLOR 1254, Method: STANDARD PLATE.
Setting [3] is: Test System: AMES SALMONELLA TYPHIMURIUM, Strain/Indicator: TA100, Metabolic Activation: HAMSTER, LIVER, S-9, AROCLOR 1254, Method: STANDARD PLATE.
[4] abbreviates: Test System: AMES SALMONELLA TYPHIMURIUM, Strain/Indicator: TA1535, Metabolic Activation: HAMSTER, LIVER, S-9, AROCLOR 1254, Method: STANDARD PLATE.
[5] abbreviates: Test System: AMES SALMONELLA TYPHIMURIUM, Strain/Indicator: TA1535, Metabolic Activation: NONE, Method: STANDARD PLATE.
[6] abbreviates: Test System: AMES SALMONELLA TYPHIMURIUM, Strain/Indicator: TA1535, Metabolic Activation: RAT, LIVER, S-9, AROCLOR 1254, Method: STANDARD PLATE.
Setting [7] is: Test System: AMES SALMONELLA TYPHIMURIUM, Strain/Indicator: TA1537, Metabolic Activation: HAMSTER, LIVER, S-9, AROCLOR 1254, Method: STANDARD PLATE.
Where [8] appears, read: Test System: AMES SALMONELLA TYPHIMURIUM, Strain/Indicator: TA1537, Metabolic Activation: NONE, Method: STANDARD PLATE.
Setting [9] is: Test System: AMES SALMONELLA TYPHIMURIUM, Strain/Indicator: TA1537, Metabolic Activation: RAT, LIVER, S-9, AROCLOR 1254, Method: STANDARD PLATE.
Setting [10] is: Test System: AMES SALMONELLA TYPHIMURIUM, Strain/Indicator: TA1538, Metabolic Activation: HAMSTER, LIVER, S-9, AROCLOR 1254, Method: STANDARD PLATE.
Where [11] appears, read: Test System: AMES SALMONELLA TYPHIMURIUM, Strain/Indicator: TA1538, Metabolic Activation: NONE, Method: STANDARD PLATE.
[12] abbreviates: Test System: AMES SALMONELLA TYPHIMURIUM, Strain/Indicator: TA1538, Metabolic Activation: RAT, LIVER, S-9, AROCLOR 1254, Method: STANDARD PLATE.
Setting [13] is: Test System: MOUSE LYMPHOMA, Strain/Indicator: L5178Y (TK+/TK-), Metabolic Activation: NONE, Method: SUSPENSION/PLATE.
Where [14] appears, read: Test System: MOUSE LYMPHOMA, Strain/Indicator: L5178Y (TK+/TK-), Metabolic Activation: RAT, LIVER, S-9, AROCLOR 1254, Method: SUSPENSION/PLATE.
Setting [15] is: Test System: AMES SALMONELLA TYPHIMURIUM, Strain/Indicator: TA100, Metabolic Activation: NONE, Method: PREINCUBATION

`CCC/C=N/O`: the mutagenic call was “inactive; negative” under setting [1]; “inactive; negative” (Test System: AMES SALMONELLA TYPHIMURIUM, Strain/Indicator: TA98, Metabolic Activation: NONE, Method: STANDARD PLATE); “inactive; negative” under setting [2]; “inactive; negative” under setting [3]; “inactive; negative” (Test System: AMES SALMONELLA TYPHIMURIUM, Strain/Indicator: TA100, Metabolic Activation: NONE, Method: STANDARD PLATE); “inactive; negative” (Test System: AMES SALMONELLA TYPHIMURIUM, Strain/Indicator: TA100, Metabolic Activation: RAT, LIVER, S-9, AROCLOR 1254, Method: STANDARD PLATE). Further, the mutagenic call under setting [4] is “inactive; negative”; the mutagenic call under setting [5] is “inactive; negative”; the mutagenic call under setting [6] is “inactive; negative”; the mutagenic call under setting [7] was “inactive; negative”; the mutagenic call under setting [8] was “inactive; negative”; the mutagenic call under setting [9] was “inactive; negative”. Besides, the mutagenic call was “inactive; negative” under setting [10]; “inactive; negative” under setting [11]; “inactive; negative” under setting [12]; “active; positive. reevaluation of results: positive” under setting [13]; “inactive; negative. reevaluation of results: negative” under setting [14].

Turning to `CN(C)S(=O)(=O)N(SC(F)(Cl)Cl)c1ccccc1`, the mutagenic call is “inactive; negative” (Test System: AMES SALMONELLA TYPHIMURIUM, Strain/Indicator: TA102, Metabolic Activation: NONE, Method: STANDARD PLATE); “inactive; negative” (Test System: AMES SALMONELLA TYPHIMURIUM, Strain/Indicator: TA102, Metabolic Activation: RAT, LIVER, S-9, PHENOBARBITAL, Method: STANDARD PLATE); “inactive; negative” (Test System: AMES SALMONELLA TYPHIMURIUM, Strain/Indicator: TA104, Metabolic Activation: NONE, Method: STANDARD PLATE); “inactive; negative” (Test System: AMES SALMONELLA TYPHIMURIUM, Strain/Indicator: TA104, Metabolic Activation: RAT, LIVER, S-9, PHENOBARBITAL, Method: STANDARD PLATE); “active; positive” (Test System: E. COLI, Strain/Indicator: WP2HCR, Metabolic Activation: NONE, Method: STANDARD PLATE); “inactive; negative” (Test System: E. COLI, Strain/Indicator: WP2HCR, Metabolic Activation: S-9 MIX, Method: STANDARD PLATE).

With `c1cscn1`, the mutagenic call under setting [1] is “inactive; negative”; the mutagenic call under setting [2] is “inactive; negative”; the mutagenic call under setting [3] was “inactive; negative”; the mutagenic call under setting [4] is “inactive; negative”; the mutagenic call under setting [5] was “inactive; negative”; the mutagenic call under setting [6] is “inactive; negative”. Also, the mutagenic call is “inactive; negative” under setting [7]; “inactive; negative” under setting [8]; “inactive; negative” under setting [9]; “inactive; negative” under setting [10]; “inactive; negative” under setting [11]; “inactive; negative” under setting [12]. The mutagenic call is “inactive; negative. reevaluation of results: negative” under setting [13] and “inactive; negative. reevaluation of results: negative” under setting [14].

`CC/C=C/C=C/C=C/C=C/C=C/OCC(O)c1ccccc1` (stereo unspecified): under setting [15], the mutagenic call was “active; positive”.

Take `CCCCCC(C)[N+](=O)[O-]` (stereo unspecified): the mutagenic call (Test System: UDS RAT HEPATOCYTES, Strain/Indicator: THY INCORP, Metabolic Activation: NONE) is “active; positive”.

For the compound `COC(=O)C1=C(C)NC(C)=C(C(=O)OC)C1c1ccccc1[N+](=O)[O-]`, the mutagenic call (Test System: AMES SALMONELLA TYPHIMURIUM, Strain/Indicator: TA97, Metabolic Activation: HAMSTER, LIVER, S-9, AROCLOR 1254 (10 OR 30%), Method: PREINCUBATION) was “inactive; negative”; the mutagenic call (Test System: AMES SALMONELLA TYPHIMURIUM, Strain/Indicator: TA97, Metabolic Activation: NONE, Method: PREINCUBATION) was “inactive; negative”; the mutagenic call (Test System: AMES SALMONELLA TYPHIMURIUM, Strain/Indicator: TA97, Metabolic Activation: RAT, LIVER, S-9, AROCLOR 1254 (10 OR 30%), Method: PREINCUBATION) is “inactive; negative”; the mutagenic call (Test System: AMES SALMONELLA TYPHIMURIUM, Strain/Indicator: TA98, Metabolic Activation: HAMSTER, LIVER, S-9, AROCLOR 1254 (10 OR 30%), Method: PREINCUBATION) was “inactive; negative”; the mutagenic call (Test System: AMES SALMONELLA TYPHIMURIUM, Strain/Indicator: TA98, Metabolic Activation: NONE, Method: PREINCUBATION) was “inactive; negative”; the mutagenic call (Test System: AMES SALMONELLA TYPHIMURIUM, Strain/Indicator: TA98, Metabolic Activation: RAT, LIVER, S-9, AROCLOR 1254 (10 OR 30%), Method: PREINCUBATION) was “inactive; negative”. The mutagenic call reads like this: (Test System: AMES SALMONELLA TYPHIMURIUM, Strain/Indicator: TA100, Metabolic Activation: HAMSTER, LIVER, S-9, AROCLOR 1254 (10 OR 30%), Method: PREINCUBATION) “inactive; negative”; under setting [15], “inactive; negative”; (Test System: AMES SALMONELLA TYPHIMURIUM, Strain/Indicator: TA100, Metabolic Activation: RAT, LIVER, S-9, AROCLOR 1254 (10 OR 30%), Method: PREINCUBATION) “inactive; negative”; (Test System: AMES SALMONELLA TYPHIMURIUM, Strain/Indicator: TA1535, Metabolic Activation: HAMSTER, LIVER, S-9, AROCLOR 1254 (10 OR 30%), Method: PREINCUBATION) “inactive; negative”; (Test System: AMES SALMONELLA TYPHIMURIUM, Strain/Indicator: TA1535, Metabolic Activation: NONE, Method: PREINCUBATION) “inactive; negative”; (Test System: AMES SALMONELLA TYPHIMURIUM, Strain/Indicator: TA1535, Metabolic Activation: RAT, LIVER, S-9, AROCLOR 1254 (10 OR 30%), Method: PREINCUBATION) “inactive; negative”.
